Values of other authors, collected in PMC13005129 (Biochemistry, 2025).
Starred links: 1 amine or outer side, 2 acyl side, 3 side chain; linkers in the order of their positions; H or OH if unused. Positions of bridges follow the written chain, without caps; N, C: chain ends. Non-standard residues stand in square brackets, D forms with d. Residues, ends and D or L forms follow the SMILES beside them. *: point of attachment. Leu(3R-OH,Nα-propionyl) = CCC(=O)N[C@H](C(=O)*)[C@H](O)C(C)C; X1 = CC(C)[C@@H](O[*:3])[C@H](N[*:1])C(=O)[*:2]; NMeT = CN[C@H](C(=O)O)[C@@H](C)O; dPhLac = O=C(O)[C@H](O)Cc1ccccc1; NMeA = CN[C@@H](C)C(=O)O; NMeDha = C=C(NC)C(=O)O

What was measured:
[1] = system: M3Rs expressed by immortalized human airway smooth muscle (ASM) cells
Gq/11 = conditions: cultured cells

CC(=O)OC(C)C[N+](C)(C)C (centres unmarked) [methacholine]
change in [Ca2+]i on M3R activation [1]: leads to an increase in [Ca^2+]i

C=C1C(=O)N[C@@H](C)C(=O)N(C)[C@@H](C)C(=O)N[C@@H]([C@H](OC(=O)[C@@H](NC(=O)CC)[C@H](O)C(C)C)C(C)C)C(=O)N(C)[C@@H]([C@@H](C)OC)C(=O)O[C@H](C(C)C)[C@H](NC(C)=O)C(=O)O[C@H](Cc2ccccc2)C(=O)N1C [FR900359] (Ac-[X1][dPhLac][NMeDha]A[NMeA][X1](Leu(3R-OH,Nα-propionyl))[NMeT](Me); ester 1-C)
block of M3R-mediated increases in [Ca2+]i (Gq/11): can be effectively blocked
